Here are results for one compound from patent publication US12296011B2, “Methods for photodynamic therapy” (Sun Pharmaceutical Industries, Inc., priority 2018, dated 2025).

One series relates to actinic keratoses. Put plainly: Randomized vehicle-controlled photodynamic therapy study, ALA with LDPE occlusion and blue light. It counts as in vivo, human. An excerpt:
The actinic keratoses were present on the upper extremities, more specifically, on the dorsal surface of the hands and/or the forearm area between the elbow and the base of the fingers. Subjects ranged from 45 to 90 years of age (mean 68 years) and 90% had Fitzpatrick Skin Type I, II or III. Subjects were randomized to treatment in a 1:1 ratio. ALA was applied to lesions on the dorsal surface of one hand or the forearm for each subject, and the dorsal surface of the hand or the forearm was then occluded with low density polyethylene barrier for three hours. Following removal of the low density polyethylene barrier, a 10 J/cm^2 dose of blue light was delivered at 10 mW/cm^2, with treatment repeated after 8 weeks if any lesion(s) remained in the treatment area.
The recurrence rate corresponds to the percentage of subjects with at least one recurrent lesion during the 12 month follow up period following the evaluation at twelve weeks who had previously achieved complete clearance at twelve weeks following treatment.

A further series is described as follows: Solubility in water. Format: physicochemical.
Series [1] in a line: clinical. The note with it: both, human, plasma.
Experimental: (§1) Two open-label, pharmacokinetic studies were carried out to evaluate the potential for systemic exposure of ALA and ALA and protoporphyrin IX (PpIX) when applied topically under occlusion, in a maximal use setting in patients with multiple actinic keratoses (AK) lesions on the upper extremities. In accordance with at least one embodiment, a 20% w/w topical composition of 5-aminolevulinic acid (ALA) was directly applied topically via an applicator to the upper extremities of the patients followed by covering with an occlusive, polyethylene film for a 3 hour incubation period. Light treatment was administered after the incubation period. Each subject received 10 J/cm^2 of visible blue light delivered at 10 mW/cm^2.
(§2) In the first of the two studies, a total of 29 participants were enrolled. The participants were males and non-pregnant females, aged 18 years or older. […] The subjects received one treatment and were followed until week four after treatment. The treatment area, designated at baseline for the duration of the study, was the extensor surface of both distal upper extremities, as defined in the protocol (i.e., the dorsal hands/forearms). In the second of the two studies, a total of 14 participants were enrolled. Males and non-pregnant females, aged 18 years or older, with at least six Grade 1 or Grade 2 AK lesions on one upper extremity treatment area and at least 12 Grade 1 or Grade 2 AK lesions on the other upper extremity treatment area, were eligible for the study.
(§3) The term “Cmax,” as used herein refers to maximum observed plasma concentrations based on actual values measured following study medication application.
The nature of series [2]: clinical. The conditions noted are these: both, human, plasma, topical or ocular, 354 mg.
Experimental: as §1, §2
The nature of series [3]: Open-label maximal use pharmacokinetic study, topical ALA under occlusion (first study).
Experimental: as §1, §2, §3
Series [4] is described as follows: Open-label maximal use pharmacokinetic study, topical ALA under occlusion (another experiment).
Experimental: as §1, §2
Where [5] appears, read: following a baseline correction.
Setting [6] is: topical, 3 hour occlusion, not baseline corrected.

For `Cl.NCC(=O)CCC(=O)O` [ALA, 5-amino-4-oxopentanoic acid hydrochloride], in the series on actinic keratoses (twelve weeks after initial treatment, 3 h LDPE occlusion, 10 J/cm^2 blue light, 42 out of 135 subjects), the “complete clearance (subjects with resolution of the actinic keratoses)” value came out at 31%. This compound showed a recurrence rate with actinic keratoses (twelve-month follow-up of subjects with complete clearance at twelve weeks) of 58%. Moreover, in “Solubility in water”, the solubility in water entry is “highly soluble”. In addition, the AUC(0-t) in “clinical [1]” (topical) came out at 282 ng·h/mL; in the series “clinical [1]” (topical or ocular), 577 ng·h/mL. For the same compound, the peak concentration (Cmax) in “clinical [1]” (topical or ocular, 354 mg) is < 110 ng/mL. Also, the bioavailability in “clinical [2]” is ~1%. For the same compound, the “ALA geometric mean maximum plasma concentration” value in series [3] (setting [5]) worked out at 80 ng/mL; in series [4] (setting [5]), 39 ng/mL. In addition, the “time of maximum plasma concentration (median)” value in series [3] (setting [5]), in series [3] (setting [6]), in series [4] (setting [5]) and in series [4] (not baseline corrected) was 2 h each time. Further, the “geometric mean maximum plasma concentration” value in series [3] (setting [6]) is given as “about 98 ng/mL”; in series [4] (topical, not baseline corrected), “about 61 ng/ml”.

By AUC(0-t) is commonly meant the area under the concentration-time curve up to a stated or last time point. Higher therefore signals more exposure. What is called Cmax is the maximum level reached in the sampled fluid or tissue. For orientation: bioavailability means dose-corrected exposure relative to a reference, in per cent. High values mean good availability, low ones poor availability.
